Source: ChEMBL document CHEMBL1153284, “N-(3-fluoro-4-(2-arylthieno[3,2-b]pyridin-7-yloxy)phenyl)-2-oxo-3-phenylimidazolidine-1-carboxamides: a novel series of dual c-Met/VEGFR2 receptor tyrosine kinase inhibitors” (Bioorg Med Chem Lett, 2009)
Active and inactive are the calls of the source. The rule behind the calls is not given here.

How the values were obtained:
[1] = biological target: Vascular endothelial growth factor receptor 2 (Homo sapiens, UniProt P35968); experiment: Inhibition of GST-fused recombinant VGFR2 catalytic domain expressed in baculovirus-infected Sf9 cells after 10 mins by DELFIA assay
[2] = biological target: T1, Hepatocyte growth factor receptor (Homo sapiens, UniProt P08581); experiment: biochemical
Description: Inhibition of GST-fused recombinant c-Met catalytic domain expressed in baculovirus-infected Trichoplusia ni Hi5 cells after 30 mins by DELFIA assay

[3] = biological target: T1, Hepatocyte growth factor receptor; settings: 293t
Description: Inhibition of TPR-fused Met phosphorylation expressed in human 293T cells by ELISA

[4] = Bioavailability in rat at 4.28 to 4.98 mg/kg, po; type: ADME, organism-based; settings: in vivo
[5] = Half life in rat at 2.17 to 2.86 mg/kg, iv; type: ADME, organism-based; parameters: dose 2.17-2.86 mg/kg, route intravenous; settings: in vivo
[6] = biological target: Macrophage-stimulating protein receptor (Homo sapiens) (UniProt Q04912); experiment: Inhibition of Ron at 100 nM
[7] = biological target: Angiopoietin-1 receptor (Homo sapiens) (UniProt Q02763); experiment: Inhibition of Tie2 at 100 nM
[8] = biological target: Receptor-type tyrosine-protein kinase FLT3 (Homo sapiens) (UniProt P36888); experiment: Inhibition of FLT3 at 100 nM
[9] = biological target: T2, Aurora kinase A (Homo sapiens) (UniProt O14965); experiment: Inhibition of Aurora A at 100 nM
T2 sequence (whole entry): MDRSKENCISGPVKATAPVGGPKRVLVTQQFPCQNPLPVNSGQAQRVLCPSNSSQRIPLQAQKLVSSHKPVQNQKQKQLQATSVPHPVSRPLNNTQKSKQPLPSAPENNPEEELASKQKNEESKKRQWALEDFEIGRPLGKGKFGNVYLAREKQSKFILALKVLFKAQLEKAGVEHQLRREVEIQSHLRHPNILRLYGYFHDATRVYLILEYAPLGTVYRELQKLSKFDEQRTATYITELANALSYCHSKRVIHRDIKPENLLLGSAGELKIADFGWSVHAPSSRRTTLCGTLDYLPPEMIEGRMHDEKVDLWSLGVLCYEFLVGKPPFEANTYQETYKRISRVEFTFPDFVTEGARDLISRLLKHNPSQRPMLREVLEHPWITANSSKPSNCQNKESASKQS

MKN-45 [10] = experiment: Antitumor activity against human MKN45 cells xenografted in mouse assessed as regression of tumor growth at 40 mg/kg, po administered once daily for 12 days; type: functional, organism-based; parameters: dose 40 mg/kg
[11] = biological target: Vascular endothelial growth factor receptor 3 (Homo sapiens) (UniProt P35916); experiment: Inhibition of VEGFR3 at 100 nM
HUVEC [12] = experiment: Inhibition of tubule growth in HUVEC by angiogenesis assay; type: functional, cell-based; settings: Homo sapiens
HUVEC [13] = experiment: Inhibition of VEGF-dependent proliferation in HUVEC; type: functional, cell-based; settings: Homo sapiens
[14] = Inhibition of VEGF-dependent ERK phosphorylation
HUVEC [15] = experiment: Inhibition of tubule formation in HUVEC assessed as tubule length at 100 nM by angiogenesis assay in presence of VEGF; type: functional; settings: Homo sapiens
MKN-45 [16] = experiment: Antiproliferative activity against human MKN45 cells expressing c-Met after 72 hrs by MTT assay; type: functional, cell-based; settings: MKN-45, 72 h
HOS-TE85 = experiment: Antiproliferative activity against human MNNG-HOS cells expressing TPR-fused Met after 72 hrs by MTT assay; type: functional, cell-based; settings: HOS-TE85, 72 h
HCT-116 = experiment: Antiproliferative activity against c-Met-independent human HCT116 cells after 72 hrs by MTT assay; type: functional, cell-based; settings: HCT-116, 72 h
MDA-MB-231 = experiment: Antiproliferative activity against c-Met-independent human MDA-MB-231 cells after 72 hrs by MTT assay; type: functional, cell-based; settings: MDA-MB-231, 72 h
[17] = biological target: Vascular endothelial growth factor receptor 1 (Homo sapiens) (UniProt P17948); experiment: Inhibition of VEGFR1 at 100 nM

Compound | IC50 [1] [nM] | IC50 [2] [nM] | IC50 [3] [nM] | further results
Cn1cnc(-c2cc3nccc(Oc4ccc(NC(=O)NC(=O)Cc5ccccc5)cc4F)c3s2)c1 | 37 | 25 | – | –
Cn1cnc(-c2cc3nccc(Oc4ccc(NC(=O)C5(C)CCN(c6ccccc6)C5=O)cc4F)c3s2)c1 (stereo not drawn) | 230 | 67 | 1000 | –
Cn1cnc(-c2cc3nccc(Oc4ccc(NC(=O)C5CCN(c6ccccc6)C5=O)cc4F)c3s2)c1 (stereo not drawn) | 39 | 35 | 370 | bioavailability [4]: 14%; half-life [5]: 1.1 h
CC(C)n1cnc(-c2cc3nccc(Oc4ccc(NC(=O)C5CCN(c6ccccc6)C5=O)cc4F)c3s2)c1 (stereo not drawn) | 16 | 39 | 210 | –
CNC(=O)N1CCN(Cc2ccc(-c3cc4nccc(Oc5ccc(NC(=O)N6CCN(c7ccccc7)C6=O)cc5F)c4s3)cc2)CC1 | 8 | 16 | 80 | –
Cn1cnc(-c2cc3nccc(Oc4ccc(NC(=S)N5CCN(c6ccccc6)C5=O)cc4F)c3s2)c1 | 12 | 24 | 80 | –
CC(=O)c1cccc(-c2cc3nccc(Oc4ccc(NC(=O)N5CCN(c6ccccc6)C5=O)cc4F)c3s2)c1 | 880 | 200 | 270 | –
CN1CC=C(c2cc3nccc(Oc4ccc(NC(=O)N5CCN(c6ccccc6)C5=O)cc4F)c3s2)CC1 | 170 | 33 | 300 | –
Cn1ccnc1-c1cc2nccc(Oc3ccc(NC(=O)N4CCN(c5ccccc5)C4=O)cc3F)c2s1 | 31 | 26 | 120 | –
CCn1cnc(-c2cc3nccc(Oc4ccc(NC(=O)N5CCN(c6ccccc6OC)C5=O)cc4F)c3s2)c1 | 14 | 26 | 60 | –
O=C(Nc1ccc(Oc2ccnc3cc(-c4cn(CCN5CCCC5)cn4)sc23)c(F)c1)N1CCN(c2ccccc2)C1=O | 20 | 35 | 320 | –
CCn1cnc(-c2cc3nccc(Oc4ccc(NC(=O)N5CCN(c6ccccc6F)C5=O)cc4F)c3s2)c1 | 3 | 21 | 100 | –
CN(C)[C@H]1CCN(C(=O)c2cc3nccc(Oc4ccc(NC(=O)N5CCN(c6ccccc6)C5=O)cc4F)c3s2)C1 | 23 | 42 | 230 | –
Cn1cnc(-c2cc3nccc(Oc4ccc(NC(=O)CC(=O)Nc5ccccc5)cc4F)c3s2)c1 | 15 | 28 | 310 | –
CN(C(=O)CC(=O)Nc1ccc(Oc2ccnc3cc(-c4cn(C)cn4)sc23)c(F)c1)c1ccccc1 | 10 | 43 | 160 | –
O=C(Nc1ccc(Oc2ccnc3cc(-c4cn(CCCN5CCCC5)cn4)sc23)c(F)c1)N1CCN(c2ccccc2)C1=O | 8 | 21 | 300 | –
CCn1ccnc1-c1cc2nccc(Oc3ccc(NC(=O)N4CCN(c5ccccc5)C4=O)cc3F)c2s1 | 26 | 24 | 140 | –
CCn1cnc(-c2cc3nccc(Oc4ccc(NC(=O)N5CCN(c6ccc(F)cc6)C5=O)cc4F)c3s2)c1 | 7 | 27 | 50 | inhibition [6]: 100%; inhibition [7]: 99%; inhibition [8]: 80%; inhibition [9]: 9%; Activity (MKN-45 [10]): Active; inhibition [11]: 99%; IC50 (HUVEC [12]): 6 nM; bioavailability [4]: 37%; half-life [5]: 6.3 h; IC50 (HUVEC [13]): 6 nM; IC50 [14]: 1 nM; inhibition at 0.1 µM (HUVEC [15]): 98%; IC50 (MKN-45 [16]): 10 nM; IC50 (HOS-TE85): 33 nM; IC50 (HCT-116): 13000 nM; IC50 (MDA-MB-231): 20000 nM; inhibition [17]: 99%
CN(C(=O)C1(C(=O)Nc2ccc(Oc3ccnc4cc(-c5cn(C)cn5)sc34)c(F)c2)CC1)c1ccccc1 | 57 | 1000 | 1440 | –
Cn1cnc(-c2cc3nccc(Oc4ccc(NC(=O)N5CCN(c6ccccc6)C5=S)cc4F)c3s2)c1 | 1800 | 2000 | > 10000 | –
Cn1cnc(-c2cc3nccc(Oc4ccc(NC(=S)NC(=O)Cc5ccccc5)cc4F)c3s2)c1 | 26 | – | – | half-life [5]: 1.2 h
CC(C)n1cnc(-c2cc3nccc(Oc4ccc(NC(=O)C5CC(=O)N(c6ccccc6)C5)cc4F)c3s2)c1 (stereo not drawn) | 800 | 300 | – | –
CN(C)CCn1cnc(-c2cc3nccc(Oc4ccc(NC(=O)N5CCN(c6ccccc6)C5=O)cc4F)c3s2)c1 | 14 | 34 | 60 | –
CN1CCN(CCN(C)Cc2ccc(-c3cc4nccc(Oc5ccc(NC(=O)N6CCN(c7ccccc7)C6=O)cc5F)c4s3)cc2)CC1 | 3 | 28 | 830 | –
CCn1cnc(-c2cc3nccc(Oc4ccc(NC(=O)N5CCN(c6ccccc6)C5=O)cc4F)c3s2)c1 | 12 | 25 | 40 | –
Cn1cnc(-c2cc3nccc(Oc4ccc(NC(=O)C5(C(=O)Nc6ccccc6)CC5)cc4F)c3s2)c1 | 9 | 28 | 60 | –
Cn1cnc(-c2cc3nccc(Oc4ccc(NC(=O)N5CCN(c6ccccc6)C5=O)cc4F)c3s2)c1 | 8 | – | – | bioavailability [4]: 13%; half-life [5]: 2.3 h
CN1CCN(Cc2ccc(-c3cc4nccc(Oc5ccc(NC(=O)N6CCN(c7ccccc7)C6=O)cc5F)c4s3)cc2)CC1 | 12 | 29 | 250 | –
O=C(Nc1ccc(Oc2ccnc3cc(-c4ccc(CN5CCNCC5)cc4)sc23)c(F)c1)N1CCN(c2ccccc2)C1=O | 11 | 22 | 420 | –
